Consider nine compounds from US12528814B2, “Bifunctional degraders of interleukin-1 receptor-associated kinases and therapeutic use thereof” (NURIX THERAPEUTICS, INC., priority 2020, dated 2026).

The target in assay [1] is T1, IRAK4 (Homo sapiens (Human), UniProt Q9NWZ3). Description: IRAK4 Biochemical HTRF Kinase Assay. Particulars: read-out: IRAK4 HTRF biochemical: IC50. The method, boiled down: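 HTRF KinEASE STK S1 format measuring IRAK4 phosphorylation of biotinylated peptide; reaction solution of 5 μM STK-S1, 10 mM ATP, 10 mM MgCl2 added (stock, to 10 μl final), 90 min at ambient temperature, detection 60 min. IC50 from sixteen-point duplicate curves by non-linear regression.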
Target sequence in this assay (Q9NWZ3 whole entry, species assumed): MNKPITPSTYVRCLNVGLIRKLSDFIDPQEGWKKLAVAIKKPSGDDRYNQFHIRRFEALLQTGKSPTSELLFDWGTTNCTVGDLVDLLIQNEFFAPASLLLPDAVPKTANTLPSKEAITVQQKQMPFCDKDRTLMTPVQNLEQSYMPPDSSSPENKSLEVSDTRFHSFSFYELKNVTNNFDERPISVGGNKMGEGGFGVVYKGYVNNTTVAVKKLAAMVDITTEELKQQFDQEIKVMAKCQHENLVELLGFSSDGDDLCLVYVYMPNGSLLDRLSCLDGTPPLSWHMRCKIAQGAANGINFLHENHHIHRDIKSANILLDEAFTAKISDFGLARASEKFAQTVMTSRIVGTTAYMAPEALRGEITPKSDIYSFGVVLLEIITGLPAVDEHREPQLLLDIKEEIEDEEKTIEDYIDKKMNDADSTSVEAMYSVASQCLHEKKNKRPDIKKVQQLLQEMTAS

Assay [2] concerns the target T1, IRAK4. Description: IRAK4 Degradation HiBiT Assay. The conditions noted are these: HiBiT-tagged Jurkat cells, 4 hrs; for Dmax: Jurkat; for DC50: read-out: Cellular IRAK4 HiBiT: DC50.
Target sequence in this assay (Q9NWZ3 whole entry): as the sequence (Q9NWZ3 whole entry, species assumed) above
[3] abbreviates: read-out: Cellular IRAK4 HiBiT: Dmax, Table 4.
[4] abbreviates: read-out: Cellular IRAK4 HiBiT: Dmax, Table 5, multiple runs.

Molecules are shown by their SMILES. pIC50: −log10 of the molar value. Read-outs that look alike come from different tables or passages of the source. Bounds are passed on as bounds.

As to `CC(C)Nc1cc(-c2ccc3cc(C#N)cnn23)ncc1-c1nnc(N2CCN(C(=O)CNc3cccc4c3C(=O)N(C3CCC(=O)NC3=O)C4=O)CC2)s1` (centres unmarked) [Example 31, 7-(5-(5-(4-((2-(2,6-dioxopiperidin-3-yl)-1,3-dioxoisoindolin-4-yl)glycyl)piperazin-1-yl)-1,3,4-thiadiazol-2-yl)-4-(isopropylamino)pyridin-2-yl)pyrrolo[1,2-b]pyridazine-3-carbonitrile], the negative logarithm of the IC50 (pIC50) (in general, the IC50 on a negative log10 scale, so that one unit is a factor of ten) at IRAK4 [1] (Table 4) was 8.74; at IRAK4 [1] (Table 5, multiple runs), 8.77. In addition, the maximal degradation (Dmax) at IRAK4 [2] (setting [3]) and on IRAK4 [2] (setting [4]) was 39% throughout. In addition, the 50% degradation concentration (DC50) – broadly, the concentration giving 50% degradation – amounted to 106 nM at IRAK4 [2] (Table 4) and 105 nM on IRAK4 [2] (Table 5, multiple runs).

Take `CC(C)Nc1cc(-c2ccc3cc(C#N)cnn23)ncc1-c1nnc(N2CCN(CC3CCN(c4cccc5c4n(C)c(=O)n5C4CCC(=O)NC4=O)CC3)CC2)s1` (centres unmarked) [Example 32, 7-(5-(5-(4-((1-(1-(2,6-dioxopiperidin-3-yl)-3-methyl-2-oxo-2,3-dihydro-1H-benzo[d]imidazol-4-yl)piperidin-4-yl)methyl)piperazin-1-yl)-1,3,4-thiadiazol-2-yl)-4-(isopropylamino)pyridin-2-yl)pyrrolo[1,2-b]pyridazine-3-carbonitrile]: the negative-log IC50 (pIC50) is 8.64 on IRAK4 [1] (Table 4) and 8.60 on IRAK4 [1] (Table 5, multiple runs). The Dmax on IRAK4 [2] (setting [3]) and on IRAK4 [2] (setting [4]) was 37% each time. The 50% degradation concentration (DC50) is 152 nM at IRAK4 [2] (Table 4) and 153 nM at IRAK4 [2] (Table 5, multiple runs).

Turning to `CC(C)Nc1cc(-c2ccc3cc(C#N)cnn23)ncc1-c1nnc(N2CCN(CC3CCN(c4ccc(C(=O)NC5CCC(=O)NC5=O)nc4)CC3)CC2)s1` (centres unmarked) [Example 33, 5-(4-((4-(5-(6-(3-cyanopyrrolo[1,2-b]pyridazin-7-yl)-4-(isopropylamino)pyridin-3-yl)-1,3,4-thiadiazol-2-yl)piperazin-1-yl)methyl)piperidin-1-yl)-N-(2,6-dioxopiperidin-3-yl)picolinamide], the pIC50 was 8.68 at IRAK4 [1] (Table 4) and 8.68 at IRAK4 [1] (Table 5, multiple runs). Further, the Dmax – broadly, the largest share of the target that was removed – at IRAK4 [2] (setting [3]) is 14%. Further, the half-maximal degradation concentration (DC50) on IRAK4 [2] (Table 4) was greater than 10000 nM; at IRAK4 [2] (Table 5, multiple runs), greater than 9980 nM.

Take `CC(C)Nc1cc(-c2ccc3cc(C#N)cnn23)ncc1-c1nnc(N2CCN(CC3CCN(c4ccc(C(=O)N(C)C5CCC(=O)NC5=O)cc4)CC3)CC2)s1` (centres unmarked) [Example 34, 4-(4-((4-(5-(6-(3-cyanopyrrolo[1,2-b]pyridazin-7-yl)-4-(isopropylamino)pyridin-3-yl)-1,3,4-thiadiazol-2-yl)piperazin-1-yl)methyl)piperidin-1-yl)-N-(2,6-dioxopiperidin-3-yl)-N-methylbenzamide]: the pIC50 on IRAK4 [1] (Table 4) was 8.70; on IRAK4 [1] (Table 5, multiple runs) it was 8.70. In addition, the Dmax on IRAK4 [2] (setting [3]) and on IRAK4 [2] (setting [4]) was 85% in each case. The 50% degradation concentration (DC50) on IRAK4 [2] (Table 4) turned out to be 326 nM; on IRAK4 [2] (Table 5, multiple runs), 326 nM.

Take `Cc1ncsc1-c1ccc([C@H](C)NC(=O)[C@@H]2C[C@@H](O)CN2C(=O)[C@@H](NC(=O)CCCCCCCC(=O)N2CCN(c3nnc(-c4cnc(-c5ccc6cc(C#N)cnn56)cc4NC(C)C)s3)CC2)C(C)(C)C)cc1` [Example 36, (2S,4R)-1-((S)-2-(9-(4-(5-(6-(3-cyanopyrrolo[1,2-b]pyridazin-7-yl)-4-(isopropylamino)pyridin-3-yl)-1,3,4-thiadiazol-2-yl)piperazin-1-yl)-9-oxononanamido)-3,3-dimethylbutanoyl)-4-hydroxy-N—((S)-1-(4-(4-methylthiazol-5-yl)phenyl)ethyl)pyrrolidine-2-carboxamide]: the negative-log IC50 (pIC50) on IRAK4 [1] (Table 4) is 7.87; on IRAK4 [1] (Table 5, multiple runs) it was 7.87. The Dmax came out at 84% on IRAK4 [2] (setting [3]) and 85% at IRAK4 [2] (setting [4]). Further, the DC50 amounted to 315 nM on IRAK4 [2] (Table 4) and 287 nM on IRAK4 [2] (Table 5, multiple runs).

Take `Cc1ncsc1-c1ccc([C@H](C)NC(=O)[C@@H]2C[C@@H](O)CN2C(=O)[C@@H](NC(=O)CCCCCC(=O)N2CCN(c3nnc(-c4cnc(-c5ccc6cc(C#N)cnn56)cc4NC(C)C)s3)CC2)C(C)(C)C)cc1` [Example 37, (2S,4R)-1-((S)-2-(7-(4-(5-(6-(3-cyanopyrrolo[1,2-b]pyridazin-7-yl)-4-(isopropylamino)pyridin-3-yl)-1,3,4-thiadiazol-2-yl)piperazin-1-yl)-7-oxoheptanamido)-3,3-dimethylbutanoyl)-4-hydroxy-N—((S)-1-(4-(4-methylthiazol-5-yl)phenyl)ethyl)pyrrolidine-2-carboxamide]: the negative-log IC50 (pIC50) was 8.22 at IRAK4 [1] (Table 4) and 8.22 at IRAK4 [1] (Table 5, multiple runs). Moreover, the Dmax on IRAK4 [2] (setting [3]) and at IRAK4 [2] (setting [4]) was 98% throughout. The DC50 at IRAK4 [2] (Table 4) turned out to be 240 nM; on IRAK4 [2] (Table 5, multiple runs), 220 nM.

As to `Cc1ncsc1-c1ccc([C@H](C)NC(=O)[C@@H]2C[C@@H](O)CN2C(=O)[C@@H](NC(=O)CCCCCCCCCC(=O)N2CCN(c3nnc(-c4cnc(-c5ccc6cc(C#N)cnn56)cc4NC(C)C)s3)CC2)C(C)(C)C)cc1` [Example 38, (2S,4R)-1-((S)-2-(11-(4-(5-(6-(3-cyanopyrrolo[1,2-b]pyridazin-7-yl)-4-(isopropylamino)pyridin-3-yl)-1,3,4-thiadiazol-2-yl)piperazin-1-yl)-11-oxoundecanamido)-3,3-dimethylbutanoyl)-4-hydroxy-N—((S)-1-(4-(4-methylthiazol-5-yl)phenyl)ethyl)pyrrolidine-2-carboxamide], the pIC50 was 7.98 on IRAK4 [1] (Table 4) and 7.98 on IRAK4 [1] (Table 5, multiple runs). The Dmax at IRAK4 [2] (setting [3]) and at IRAK4 [2] (setting [4]) was 34% throughout. The half-maximal degradation concentration (DC50) at IRAK4 [2] (Table 4) was 128 nM; on IRAK4 [2] (Table 5, multiple runs) it was 128 nM.

On to `Cc1ncsc1-c1ccc([C@H](C)NC(=O)[C@@H]2C[C@@H](O)CN2C(=O)[C@@H](NC(=O)CCCCC(=O)N2CCN(c3nnc(-c4cnc(-c5ccc6cc(C#N)cnn56)cc4NC(C)C)s3)CC2)C(C)(C)C)cc1` [Example 39, (2S,4R)-1-((S)-2-(6-(4-(5-(6-(3-cyanopyrrolo[1,2-b]pyridazin-7-yl)-4-(isopropylamino)pyridin-3-yl)-1,3,4-thiadiazol-2-yl)piperazin-1-yl)-6-oxohexanamido)-3,3-dimethylbutanoyl)-4-hydroxy-N—((S)-1-(4-(4-methylthiazol-5-yl)phenyl)ethyl)pyrrolidine-2-carboxamide], for which the pIC50 on IRAK4 [1] (Table 4) was 8.30; on IRAK4 [1] (Table 5, multiple runs), 8.30. Also, the maximal degradation (Dmax) on IRAK4 [2] (setting [3]) and at IRAK4 [2] (setting [4]) was 97% throughout. Besides, the 50% degradation concentration (DC50) turned out to be 357 nM on IRAK4 [2] (Table 4) and 357 nM at IRAK4 [2] (Table 5, multiple runs).

For `Cc1ncsc1-c1ccc([C@H](C)NC(=O)[C@@H]2C[C@@H](O)CN2C(=O)[C@@H](NC(=O)CCC(=O)N2CCN(c3nnc(-c4cnc(-c5ccc6cc(C#N)cnn56)cc4NC(C)C)s3)CC2)C(C)(C)C)cc1` [Example 40, (2S,4R)-1-((S)-2-(4-(4-(5-(6-(3-cyanopyrrolo[1,2-b]pyridazin-7-yl)-4-(isopropylamino)pyridin-3-yl)-1,3,4-thiadiazol-2-yl)piperazin-1-yl)-4-oxobutanamido)-3,3-dimethylbutanoyl)-4-hydroxy-N—((S)-1-(4-(4-methylthiazol-5-yl)phenyl)ethyl)pyrrolidine-2-carboxamide], the pIC50 on IRAK4 [1] (Table 4) was 8.44; at IRAK4 [1] (Table 5, multiple runs) it was 8.44. Besides, the Dmax at IRAK4 [2] (setting [3]) and on IRAK4 [2] (setting [4]) was 53% in each case. For the same compound, the 50% degradation concentration (DC50) on IRAK4 [2] (Table 4) worked out at 420 nM; at IRAK4 [2] (Table 5, multiple runs), 419 nM.
